Data taken from the supplement of paper PMC10307832.

Experiments:
Assay in all cases: relative viability (nuclei count vs DMSO), 5 days (fraction); higher = more cells survive
LC-2-ad = tested on: LC-2-ad
Procedure, shortened: (§1)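 Medians of duplicate plates are given as relative viability. That measure is the nuclei count in treated wells divided by the count in vehicle wells. Counts were taken on 4× images of lung cancer cell lines in 1536-well plates, 5 days after pin-tool dosing the day after seeding with one drug alone or a fixed anchor-drug dose plus five library-drug doses (not always all listed) in √10 steps.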

NCI-H2228 = tested on: NCI-H2228
Procedure, shortened: as §1

LCLC-103H = tested on: LCLC-103H
Procedure, shortened: as §1

COR-L23 = tested on: COR-L23
Procedure, shortened: as §1

SW 1573 = tested on: SW 1573
Procedure, shortened: as §1

LU99A = tested on: LU99A
Procedure, shortened: as §1

H3255 = tested on: H3255
Procedure, shortened: as §1

SW 900 = tested on: SW 900
Procedure, shortened: as §1

NCI-H1563 = tested on: NCI-H1563
Procedure, shortened: as §1

PC-14 = tested on: PC-14
Procedure, shortened: as §1

NCI-H1650 = tested on: NCI-H1650
Procedure, shortened: as §1

NCI-H727 = tested on: NCI-H727
Procedure, shortened: as §1

NCI-H2347 = tested on: NCI-H2347
Procedure, shortened: as §1

A-427 = tested on: A-427
Procedure, shortened: as §1

201T = tested on: 201T
Procedure, shortened: as §1

NCI-H596 = tested on: NCI-H596
Procedure, shortened: as §1

HCC-44 = tested on: HCC-44
Procedure, shortened: as §1

NCI-H1793 = tested on: NCI-H1793
Procedure, shortened: as §1

LCLC-97TM1 = tested on: LCLC-97TM1
Procedure, shortened: as §1

NCI-H23 = tested on: NCI-H23
Procedure, shortened: as §1

LK-2 = tested on: LK-2
Procedure, shortened: as §1

NCI-H460 = tested on: NCI-H460
Procedure, shortened: as §1

Structure (SMILES): Nc1ccn([C@@H]2O[C@H](CO)[C@@H](O)[C@@H]2O)c(=O)n1 [Cytarabine] + COc1cccc2cc(-c3nc([C@H]4CC[C@H](C(=O)O)CC4)n4ncnc(N)c34)[nH]c12 [OSI-027] (partner 0.5 µM)
- relative viability (LC-2-ad; first compound 0.005 µM): 0.734
- relative viability (LC-2-ad; first compound 0.01581 µM): 0.69
- relative viability (LC-2-ad; first compound 0.05 µM): 0.539
- relative viability (LC-2-ad; first compound 0.1581 µM): 0.344
- relative viability (LC-2-ad; first compound 0.5 µM): 0.318
- relative viability (NCI-H2228; first compound 0.005 µM): 0.404
- relative viability (NCI-H2228; first compound 0.01581 µM): 0.209
- relative viability (NCI-H2228; first compound 0.05 µM): 0.244
- relative viability (NCI-H2228; first compound 0.1581 µM): 0.097
- relative viability (NCI-H2228; first compound 0.5 µM): 0.0984
- relative viability (LCLC-103H; first compound 0.005 µM): 0.412
- relative viability (LCLC-103H; first compound 0.01581 µM): 0.411
- relative viability (LCLC-103H; first compound 0.05 µM): 0.511
- relative viability (LCLC-103H; first compound 0.1581 µM): 0.418
- relative viability (LCLC-103H; first compound 0.5 µM): 0.473
- relative viability (COR-L23; first compound 0.005 µM): 0.396
- relative viability (COR-L23; first compound 0.01581 µM): 0.546
- relative viability (COR-L23; first compound 0.05 µM): 0.546
- relative viability (COR-L23; first compound 0.1581 µM): 0.16
- relative viability (COR-L23; first compound 0.5 µM): 0.116
- relative viability (SW 1573; first compound 0.005 µM): 0.735
- relative viability (SW 1573; first compound 0.01581 µM): 0.49
- relative viability (SW 1573; first compound 0.05 µM): 0.466
- relative viability (SW 1573; first compound 0.1581 µM): 0.131
- relative viability (SW 1573; first compound 0.5 µM): 0.0871
- relative viability (LU99A; first compound 0.005 µM): 0.287
- relative viability (LU99A; first compound 0.01581 µM): 0.271
- relative viability (LU99A; first compound 0.05 µM): 0.288
- relative viability (LU99A; first compound 0.1581 µM): 0.288
- relative viability (LU99A; first compound 0.5 µM): 0.281
- relative viability (H3255; first compound 0.005 µM): 0.521
- relative viability (H3255; first compound 0.01581 µM): 0.579
- relative viability (H3255; first compound 0.05 µM): 0.53
- relative viability (H3255; first compound 0.1581 µM): 0.429
- relative viability (H3255; first compound 0.5 µM): 0.453
- relative viability (SW 900; first compound 0.005 µM): 0.396
- relative viability (SW 900; first compound 0.01581 µM): 0.34
- relative viability (SW 900; first compound 0.05 µM): 0.335
- relative viability (SW 900; first compound 0.1581 µM): 0.145
- relative viability (SW 900; first compound 0.5 µM): 0.136
- relative viability (NCI-H1563; first compound 0.005 µM): 0.691
- relative viability (NCI-H1563; first compound 0.01581 µM): 0.797
- relative viability (NCI-H1563; first compound 0.05 µM): 0.773
- relative viability (NCI-H1563; first compound 0.1581 µM): 0.583
- relative viability (NCI-H1563; first compound 0.5 µM): 0.628
- relative viability (PC-14; first compound 0.005 µM): 0.691
- relative viability (PC-14; first compound 0.01581 µM): 0.455
- relative viability (PC-14; first compound 0.05 µM): 0.71
- relative viability (PC-14; first compound 0.1581 µM): 0.166
- relative viability (PC-14; first compound 0.5 µM): 0.115
- relative viability (NCI-H1650; first compound 0.005 µM): 0.44
- relative viability (NCI-H1650; first compound 0.01581 µM): 0.507
- relative viability (NCI-H1650; first compound 0.05 µM): 0.354
- relative viability (NCI-H1650; first compound 0.1581 µM): 0.311
- relative viability (NCI-H1650; first compound 0.5 µM): 0.259
- relative viability (NCI-H727; first compound 0.005 µM): 0.589
- relative viability (NCI-H727; first compound 0.01581 µM): 0.558
- relative viability (NCI-H727; first compound 0.05 µM): 0.491
- relative viability (NCI-H727; first compound 0.1581 µM): 0.38
- relative viability (NCI-H727; first compound 0.5 µM): 0.347
- relative viability (NCI-H2347; first compound 0.005 µM): 0.401
- relative viability (NCI-H2347; first compound 0.01581 µM): 0.282
- relative viability (NCI-H2347; first compound 0.05 µM): 0.336
- relative viability (NCI-H2347; first compound 0.1581 µM): 0.268
- relative viability (NCI-H2347; first compound 0.5 µM): 0.327
- relative viability (A-427; first compound 0.005 µM): 0.4
- relative viability (A-427; first compound 0.01581 µM): 0.259
- relative viability (A-427; first compound 0.05 µM): 0.275
- relative viability (A-427; first compound 0.1581 µM): 0.16
- relative viability (A-427; first compound 0.5 µM): 0.177
- relative viability (201T; first compound 0.005 µM): 0.711
- relative viability (201T; first compound 0.01581 µM): 0.782
- relative viability (201T; first compound 0.05 µM): 0.562
- relative viability (201T; first compound 0.1581 µM): 0.382
- relative viability (201T; first compound 0.5 µM): 0.272
- relative viability (NCI-H596; first compound 0.005 µM): 0.682
- relative viability (NCI-H596; first compound 0.01581 µM): 0.702
- relative viability (NCI-H596; first compound 0.05 µM): 0.592
- relative viability (NCI-H596; first compound 0.1581 µM): 0.418
- relative viability (NCI-H596; first compound 0.5 µM): 0.317
- relative viability (HCC-44; first compound 0.005 µM): 0.376
- relative viability (HCC-44; first compound 0.01581 µM): 0.461
- relative viability (HCC-44; first compound 0.05 µM): 0.413
- relative viability (HCC-44; first compound 0.1581 µM): 0.189
- relative viability (HCC-44; first compound 0.5 µM): 0.226
- relative viability (NCI-H1793; first compound 0.005 µM): 0.296
- relative viability (NCI-H1793; first compound 0.01581 µM): 0.285
- relative viability (NCI-H1793; first compound 0.05 µM): 0.245
- relative viability (NCI-H1793; first compound 0.1581 µM): 0.198
- relative viability (NCI-H1793; first compound 0.5 µM): 0.197
- relative viability (LCLC-97TM1; first compound 0.005 µM): 0.45
- relative viability (LCLC-97TM1; first compound 0.01581 µM): 0.37
- relative viability (LCLC-97TM1; first compound 0.05 µM): 0.439
- relative viability (LCLC-97TM1; first compound 0.1581 µM): 0.191
- relative viability (LCLC-97TM1; first compound 0.5 µM): 0.139
- relative viability (NCI-H23; first compound 0.005 µM): 0.582
- relative viability (NCI-H23; first compound 0.01581 µM): 0.502
- relative viability (NCI-H23; first compound 0.05 µM): 0.507
- relative viability (NCI-H23; first compound 0.1581 µM): 0.272
- relative viability (NCI-H23; first compound 0.5 µM): 0.161
- relative viability (LK-2; first compound 0.005 µM): 0.194
- relative viability (LK-2; first compound 0.01581 µM): 0.175
- relative viability (LK-2; first compound 0.05 µM): 0.205
- relative viability (LK-2; first compound 0.1581 µM): 0.156
- relative viability (LK-2; first compound 0.5 µM): 0.154
- relative viability (NCI-H460; first compound 0.005 µM): 0.384
- relative viability (NCI-H460; first compound 0.01581 µM): 0.486
- relative viability (NCI-H460; first compound 0.05 µM): 0.301
- relative viability (NCI-H460; first compound 0.1581 µM): 0.055
- relative viability (NCI-H460; first compound 0.5 µM): 0.0359
